From patent US9572794B2, “Substituted indoles as selective protease activated receptor 4 (PAR-4) antagonists” (Vanderbilt University, priority 2014, dated 2017)
pIC50: −log10 of the molar value.

Target: T1, PAR4 (Homo sapiens, UniProt Q96RI0)
T1 construct: 60 μL of washed platelets (Tyrodes buffer containing 0.1% BSA); endogenous in cells
T1 sequence (Q96RI0 18-385): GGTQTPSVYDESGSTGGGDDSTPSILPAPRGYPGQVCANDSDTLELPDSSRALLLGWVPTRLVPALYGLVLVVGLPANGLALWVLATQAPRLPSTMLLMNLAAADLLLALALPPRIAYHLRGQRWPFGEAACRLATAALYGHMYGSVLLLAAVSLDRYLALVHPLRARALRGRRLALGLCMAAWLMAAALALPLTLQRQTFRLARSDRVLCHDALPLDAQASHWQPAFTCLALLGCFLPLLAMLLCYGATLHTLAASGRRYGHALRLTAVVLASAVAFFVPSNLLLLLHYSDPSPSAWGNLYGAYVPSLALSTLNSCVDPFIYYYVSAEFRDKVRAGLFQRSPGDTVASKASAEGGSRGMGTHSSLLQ
Test: PAC-1 Binding assay (antagonism of PAR4 mediated αIIBβ3 activation, flow cytometry)
Format: cell-based
Details: for % Max PAC-1: washed platelets, 100% response = DMSO treated control stimulated with 200 μM PAR4-AP, mean values; for pIC50: washed platelets stimulated with PAR4-AP, PAC-1 binding, sigmoidal dose response, variable slope
Experimental: PAC-1 Binding assay: 60 μL of washed platelets (Tyrodes buffer containing 0.1% BSA) at a concentration of 0.15×10^8 platelets/mL were added to 5 mL round bottom polystyrene tubes (BD, Franklin Lakes, N.J.). FITC conjugated PAC-1 (BD Biosciences, San Jose, Calif.) antibody was diluted (to the manufacturers recommended concentration) in Tyrode's buffer containing 0.1% BSA. 40 μL of diluted antibody was added to the platelets and allowed to incubate for 5 minutes. Platelets were pre-treated with indicated concentrations of antagonist or DMSO control for 5 minutes followed by addition of PAR1-AP (GL Biochem, Shanghai, China) or PAR4-AP for 10 minutes. […] The final DMSO concentration was 0.5%. Platelets were stored up to 18 hours at 4° C. before flow cytometric analysis. Analysis was carried out on a BD FACS Canto II (Franklin Lakes, N.J.). Fluorescent intensity was determined for 100,000 events within the platelet gate. Data was collected and analyzed via FACS DiVa software. Flow cytometric data analysis was conducted by the following method. The DMSO-vehicle treated control was subtracted from each data point. 100% response for PAR4-AP was determined for each individual as the DMSO treated control stimulated with either 200 μM PAR4-AP, or 20 μM PAR1-AP. Data was plotted in GraphPad PRISM v.5.0. For compounds with a notable reduction in PAC-1 binding response, dose response curves and IC50 values were generated using the inhibitory sigmoidal dose response ‘variable slope’ parameter. PAR4 results are plotted as mean values.

Row | Structure (SMILES) | % Max PAC-1 | pIC50
1 | COc1ccc(-c2c(CO)n(Cc3ccc(F)cc3F)c3ccc(OC(F)(F)F)cc23)cn1 [Example B2] | 19.7% | 6.08
2 | COc1ccc(-c2c(CO)n(Cc3cccc(C(F)(F)F)c3)c3ccc(OC(F)(F)F)cc23)cn1 [Example B3] | 59.7% | –
3 | COc1ccc(-c2c(CO)n(Cc3ccccc3)c3ccc(OC(F)(F)F)cc23)cn1 [Example B4] | 53.4% | –
4 | COc1ccc(-c2c(CO)n(Cc3cc(F)cc(F)c3)c3ccc(OC(F)(F)F)cc23)cn1 [Example B5] | 36.5% | –
5 | COc1ccc(-c2c(CO)n(Cc3cccc(Br)c3)c3ccc(OC(F)(F)F)cc23)cn1 [Example B7] | 27.2% | –
6 | COc1cc(Cn2c(CO)c(-c3ccc(OC)nc3)c3cc(OC(F)(F)F)ccc32)cc(OC)c1 [Example B10] | 110.6% | –
7 | COc1cccc(Cn2c(CO)c(-c3ccc(OC)nc3)c3cc(OC(F)(F)F)ccc32)c1 [Example B11] | 40.9% | –
8 | COc1ccc(-c2c(CO)n(Cc3cccc(Cl)c3)c3ccc(OC(F)(F)F)cc23)cn1 [Example B12] | 27.8% | –
9 | COc1cccc(Cn2c(CO)c(-c3ccc(OC)nc3)c3cc(C(F)(F)F)ccc32)c1 [Example B13, (1-(3-methoxybenzyl)-3-(6-methoxypyridin-3-yl)-5-(trifluoromethyl)-1H-indol-2-yl)methanol] | 108.5% | –
10 | COc1ccc(-c2c(CO)n(Cc3cccc(Br)c3)c3ccc(S(C)(=O)=O)cc23)cn1 [Example B21] | 74.3% | –
11 | COc1ccc(-c2c(CO)n(Cc3ccccn3)c3ccc(C#N)cc23)cn1 [Example B26] | 113.7% | –
12 | COc1ccc(-c2c(CO)n(Cc3ccccn3)c3ccc(S(C)(=O)=O)cc23)cn1 [Example B27] | 100.1% | –
13 | COc1ccc(-c2c(CO)n(Cc3cccc(Br)c3)c3ccc(C#N)cc23)cn1 [Example B31] | 109.1% | –
14 | COc1ccc(-c2c(CO)n(Cc3ccc(C#N)cc3F)c3ccc(C#N)cc23)cn1 [Example B36] | 108.8% | –
15 | COc1ccc(-c2c(CO)n(Cc3ccccn3)c3cc4c(cc23)OCO4)cn1 [Example B38] | 107.2% | –
16 | COc1ccc(-c2c(CO)n(Cc3cccc(Cl)c3)c3cc4c(cc23)OCO4)cn1 [Example B39] | 100.1% | –
17 | COc1ccc(-c2c(CO)n(Cc3cccc(Br)c3)c3cc4c(cc23)OCO4)cn1 [Example B44] | 96.5% | –
18 | OCc1c(-c2ccncc2)c2cc(OC(F)(F)F)ccc2n1Cc1ccccc1Cl [Example B47] | 101.7% | –

Row | Structure (SMILES) | % Max PAC-1 | pIC50
19 | CSc1ncc(-c2c(CO)n(Cc3ccc(F)cc3F)c3ccc(OC(F)(F)F)cc23)cn1 [Example B48] | 14.5% | 5.70
20 | OCc1c(-c2cncnc2)c2cc(OC(F)(F)F)ccc2n1Cc1ccc(F)cc1F [Example B49] | 96.0% | –
21 | CCOc1ncc(-c2c(CO)n(Cc3ccccc3Cl)c3ccc(OC(F)(F)F)cc23)cn1 [Example B52] | 24.0% | –
22 | COc1ncc(-c2c(CO)n(Cc3ccccc3Cl)c3ccc(OC(F)(F)F)cc23)cn1 [Example B54] | 2.01% | 5.54
23 | OCc1c(-c2cncnc2)c2cc(OC(F)(F)F)ccc2n1Cc1ccccc1Cl [Example B55] | 101.8% | –
24 | OCc1c(-c2ccc(F)nc2)c2cc(OC(F)(F)F)ccc2n1Cc1ccccc1Cl [Example B57] | 21.05% | 5.89
25 | OCc1c(-c2ccncc2)c2cc(OC(F)(F)F)ccc2n1Cc1ccc(F)cc1F [Example B58] | 102.2% | –
26 | COc1ccc2c(-c3ccc(OC)nc3)c(CO)n(Cc3ccccc3Cl)c2c1 [Example B59] | 4.31% | 5.87
27 | COc1ccc2c(-c3cnc(SC)nc3)c(CO)n(Cc3ccccc3Cl)c2c1 [Example B60] | 21.33% | 5.37
28 | CCOc1ccc2c(-c3ccc(OC)nc3)c(CO)n(Cc3ccccc3Cl)c2c1 [Example B61] | 19.78% | 5.42
29 | COc1ccc(-c2c(CO)n(Cc3ccccc3)c3cc(OC(F)(F)F)ccc23)cn1 [Example B62] | 34.32% | 5.43
30 | COc1ccc(-c2c(CO)n(Cc3ccccc3Cl)c3cc(OC(F)(F)F)ccc23)cn1 [Example B65] | 12.25% | 6.02
31 | COc1ccc(-c2c(CO)n(CC3CSC(c4ccccc4)=N3)c3ccc(OC(F)(F)F)cc23)cn1 (stereo not drawn) [Example B69] | 89.19% | –
32 | COc1ccc(-c2c(COCc3csc(-c4ccccc4)n3)n(Cc3csc(-c4ccccc4)n3)c3ccc(OC(F)(F)F)cc23)cn1 [Example B70] | 61.82% | –
33 | COc1ccc(-c2c(CO)n(Cc3ccccc3)c3cc(OC(C)C)ccc23)cn1 [Example B72] | 81.76% | –
34 | COc1nn2cc(-c3c(CO)n(Cc4ccccc4Cl)c4ccc(OC(F)(F)F)cc34)nc2s1 [Example B75, (1-(2-chlorobenzyl)-3-(2-methoxyimidazo[2,1-b][1,3,4]thiadiazol-6-yl)-5-(trifluoromethoxy)-1H-indol-2-yl)methanol] | 8.40% | 6.74
35 | CSc1ccc(-c2c(CO)n(Cc3ccccc3Cl)c3ccc(OC(F)(F)F)cc23)cn1 [Example B76] | 79.22% | –

Other lines, results leading:

Row | % Max PAC-1 | pIC50 | Structure (SMILES)
36 | 80.6% | – | COc1ccc(-c2c(CO)n(Cc3cccc(F)c3)c3ccc(OC(F)(F)F)cc23)cn1 [Example B1]
37 | 89.0% | – | COc1ccc(-c2c(CO)n(Cc3ccccc3F)c3ccc(OC(F)(F)F)cc23)cn1 [Example B6]
38 | 93.9% | – | COc1ccc(-c2c(CO)n(C)c3ccc(OC(F)(F)F)cc23)cn1 [Example B8]
39 | 105.0% | – | COc1ccc(-c2c(CO)n(Cc3ccc(F)cc3F)c3ccc(C#N)cc23)cn1 [Example B33]
40 | 98.6% | – | COc1ccc(-c2c(CO)n(Cc3ccc(C#N)cc3F)c3cc4c(cc23)OCO4)cn1 [Example B40]
41 | 129.1% | – | COc1cccc(Cn2c(CO)c(-c3ccc(OC)nc3)c3cc4c(cc32)OCO4)c1 [Example B45]
42 | 48.5% | – | CCOc1ncc(-c2c(CO)n(Cc3ccc(F)cc3F)c3ccc(OC(F)(F)F)cc23)cn1 [Example B51]
43 | 48.2% | – | OCc1c(-c2ccc(F)nc2)c2cc(OC(F)(F)F)ccc2n1Cc1ccc(F)cc1F [Example B53]
44 | 53.7% | < 5.00 | COc1ncc(-c2c(CO)n(Cc3ccc(F)cc3F)c3ccc(OC(F)(F)F)cc23)cn1 [Example B56]
45 | 14.77% | 5.67 | CCOc1ccc2c(-c3cnc(SC)nc3)c(CO)n(Cc3ccccc3Cl)c2c1 [Example B63]
46 | 18.53% | 5.86 | CSc1ncc(-c2c(CO)n(Cc3ccccc3Cl)c3cc(OC(C)C)ccc23)cn1 [Example B64]
47 | 59.45% | – | COc1ccc(-c2c(CO)n(Cc3ccccc3Cl)c3cc(OC(C)C)ccc23)cn1 [Example B66]
48 | 116.1% | – | COc1ccc(-c2c(CO)[nH]c3ccc(OC(F)(F)F)cc23)cn1 [Example B67]
49 | 61.98% | – | COc1ccc(-c2c(CO)n(Cc3csc(-c4ccccc4)n3)c3ccc(OC(F)(F)F)cc23)cn1 [Example B68]
50 | 5.57% | 6.79 | CSc1ncc(-c2c(CO)n(Cc3ccccc3Cl)c3cc(OC(F)(F)F)ccc23)cn1 [Example B71]
51 | 107.63% | – | CSc1ccc(-c2c(CO)n(Cc3ccccc3Cl)c3ccc(OC(F)(F)F)cc23)cc1 [Example B73]
52 | 38.32% | – | COc1nn2cc(-c3c(CO)n(Cc4csc(-c5ccccc5)n4)c4ccc(OC(F)(F)F)cc34)nc2s1 [Example B74]
